Reference: US20110111980A1, “METHOD FOR PROFILING DRUG COMPOUNDS” (priority 2008, published 2011)

Experiments:
[1] = tested on: Non Small Cell Lung Cancer (NSCLC) tissue; test: PamChip kinase activity of NSCLC tumor tissue lysates with and without inhibitor; type: biochemical; conditions: 1 μmol/L inhibitor, short vs long survival patients, data not shown
[2] = tested on: UT-SCC-9, UT-SCC-27, UT-SCC-54C, and UT-SCC-76; test: PamChip kinase inhibition profiles of 4 patient derived head and neck squamous cell carcinoma cell lines; type: biochemical; conditions: selected set of peptides, FIG. 3b
Description: Cells were harvested and were lysed in Mammalian Extraction Buffer (M-PER, Pierce) containing phosphatase and protease inhibitors (HALT, Pierce). Five microliter of the lysis solution was pipetted into a reaction mixture composed of 1×ABL buffer (New England Biolabs, cat.nr B6050S), 0.1% Bovine Serum Albumin, 100 μM ATP, 20 μg/ml phosphotyrosine antibody to an end volume of 40 microliter. Before incubation a blocking step was carried out on the substrate arrays with 0.2% bovine serum albumin. […] Real time data were obtained by measuring fluorescence of the bound anti-phosphotyrosine antibody after each 5 cycles. Image quantification and data processing was conducted with dedicated Pamgene software (Evolve and Bionavigator).
The 4 cell lines chosen, UT-SCC-9, UT-SCC-27, UT-SCC-54C, and UT-SCC-76 are patient derived cell lines, known to respond differently to radiation (in a model for therapy in head and neck cancer, squamous cell carcinomas, especially). […] The data shown are from a selected set of peptides of which the ratios of phosphorylation in the absence (0) and presence of the inhibitor are represented.

Row | Compound | differences between the phosphorylation profiles with and without the protein kinase inhibitor [1] | inhibition profiles (ratios of phosphorylation in the absence and presence of the inhibitor), differences between cell lines [2]
1 | COc1cc2ncnc(Nc3ccc(F)c(Cl)c3)c2cc1OCCCN1CCOCC1 [Gefitinib] | a number of essential differences | –
2 | Cc1ccc(-c2nn(C(C)(C)C)c3ncnc(N)c23)cc1 [PP1] | – | pronounced differences
